The supplement of paper PMC10307832

Legend:
Test in all cases: relative viability (nuclei count vs DMSO), 5 days (fraction); higher = more cells survive
[1] = compound: O=C1NC(=O)[C@@H](c2cn3c4c(cccc24)CCC3)[C@@H]1c1c[nH]c2ccccc12 [Tivantinib] + CC(=O)c1c(C)c2cnc(Nc3ccc(N4CCNCC4)cn3)nc2n(C2CCCC2)c1=O [Palbociclib] (partner 0.5 µM)
Summary of the method: (§1)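 Relative viability divides the nuclei count in treated wells by that in vehicle wells. Lung cancer cell lines were seeded in 1536-well plates, dosed by pin tool the next day, and fixed and stained after 5 days in one step with final 0.05% Triton X-100, 1% formaldehyde and 1 ug/ml Hoechst. Dosing was a single drug or a fixed anchor-drug dose plus five library-drug doses (not always all listed) in √10 steps, and values are medians of duplicate plates imaged at 4×.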

[2] = compound: O=C1NC(=O)[C@@H](c2cn3c4c(cccc24)CCC3)[C@@H]1c1c[nH]c2ccccc12 [Tivantinib] + NC(=O)Nc1cc(-c2cccc(F)c2)sc1C(=O)N[C@H]1CCCNC1 [AZD7762] (partner 0.2 µM)
Summary of the method: as §1

[3] = compound: CC1(COc2ccc3c(c2)ncn3-c2ccc3cccc(N4CCC(N)CC4)c3n2)COC1 [Crenolanib] + Cc1nc(NC(=O)N2CCC[C@H]2C(N)=O)sc1-c1ccnc(C(C)(C)C(F)(F)F)c1 [Alpelisib] (partner 2 µM)
Summary of the method: as §1

[4] = compound: O=C1NC(=O)[C@@H](c2cn3c4c(cccc24)CCC3)[C@@H]1c1c[nH]c2ccccc12 [Tivantinib] + CC(C)C[C@H](NC(=O)[C@H](Cc1ccccc1)NC(=O)c1cnccn1)B(O)O [Bortezomib] (partner 0.002 µM)
Summary of the method: as §1

Cell Line	relative viability ([1]; first compound 0.01 µM)	relative viability ([1]; first compound 0.03162 µM)	relative viability ([1]; first compound 0.1 µM)	relative viability ([1]; first compound 0.3162 µM)	relative viability ([2]; first compound 0.01 µM)	relative viability ([2]; first compound 0.03162 µM)	relative viability ([2]; first compound 0.1 µM)	relative viability ([2]; first compound 0.3162 µM)	relative viability ([3]; first compound 0.01 µM)	relative viability ([3]; first compound 0.03162 µM)	relative viability ([3]; first compound 0.1 µM)	relative viability ([3]; first compound 0.3162 µM)	relative viability ([3]; first compound 1 µM)	relative viability ([4]; first compound 0.01 µM)	relative viability ([4]; first compound 0.03162 µM)	relative viability ([4]; first compound 0.1 µM)	relative viability ([4]; first compound 0.3162 µM)
NCI-H2405	0.565	0.584	0.486	0.536	0.877	0.806	0.753	0.828	1	0.76	0.496	0.68	0.691	0.582	0.982	0.848	0.976
NCI-H441	0.224	0.209	0.199	0.212	1.04	1.22	1.11	1.03	0.708	–	0.888	0.732	0.792	0.525	0.651	–	0.449
PC-14	0.594	0.578	0.499	0.536	0.296	0.304	0.4	0.226	1.01	0.969	0.858	1.04	0.894	0.873	0.917	0.777	0.822
HCC-15	0.724	0.761	0.638	0.852	1.27	1.34	1.15	1.29	0.873	0.829	0.888	0.814	0.836	0.949	0.995	0.943	1.04
NCI-H2126	0.366	0.323	0.342	0.397	1	1.03	0.94	1.04	0.8	0.752	0.761	0.787	0.715	1.09	1.11	1.09	1.06
NCI-H1915	0.527	0.446	0.544	0.58	0.654	0.771	0.629	0.665	1.04	1.07	1.04	1.07	0.874	0.982	0.961	0.946	0.975
201T	0.368	0.386	0.364	0.348	0.602	0.62	0.623	0.611	1.01	1.02	0.998	1.05	1.05	1.06	1.06	1.09	1.1
HCC-78	0.49	0.445	0.448	0.426	0.688	0.786	0.651	0.425	0.357	0.312	0.348	0.402	0.338	0.593	0.319	0.38	–
NCI-H647	0.433	0.347	0.356	0.409	0.509	0.314	0.445	0.585	1.16	1.28	1.04	1.21	1.11	0.977	0.848	0.775	1.14
HARA	0.259	0.249	0.246	0.193	0.214	0.416	0.394	0.288	0.877	0.818	0.712	0.793	0.751	1.16	1.04	1.07	1.06
NCI-H650	0.392	0.32	0.314	0.323	1.17	0.818	1	1.21	1.14	1.13	0.972	1.06	1.07	0.723	–	0.772	0.874
NCI-H2085	0.472	0.483	0.463	0.468	1.01	0.944	0.942	0.813	1.11	0.918	0.948	1.06	1.05	0.994	0.972	1.02	1.06
NCI-H2347	0.399	0.472	0.422	0.381	0.848	0.727	0.669	0.534	1.1	1.04	0.642	1.09	1.14	1.07	1.01	1.13	1.01
EKVX	0.408	0.446	0.381	0.174	0.59	0.704	0.619	0.28	0.893	0.96	0.862	0.965	0.99	1.22	1	0.928	0.6
H3255	0.298	0.303	0.331	–	0.968	0.73	0.902	–	0.811	0.676	0.71	0.714	0.767	0.812	0.884	0.723	–
NCI-H3122	0.208	0.216	0.164	0.186	1.05	1.07	0.761	0.923	0.768	0.81	0.827	0.78	0.979	1.05	1.03	1.04	0.995

Cell Line	relative viability ([1]; first compound 0.01 µM)	relative viability ([1]; first compound 0.03162 µM)	relative viability ([1]; first compound 0.1 µM)	relative viability ([1]; first compound 0.3162 µM)	relative viability ([2]; first compound 0.01 µM)	relative viability ([2]; first compound 0.03162 µM)	relative viability ([2]; first compound 0.1 µM)	relative viability ([2]; first compound 0.3162 µM)	relative viability ([3]; first compound 0.01 µM)	relative viability ([3]; first compound 0.03162 µM)	relative viability ([3]; first compound 0.1 µM)	relative viability ([3]; first compound 0.3162 µM)	relative viability ([3]; first compound 1 µM)	relative viability ([4]; first compound 0.01 µM)	relative viability ([4]; first compound 0.03162 µM)	relative viability ([4]; first compound 0.1 µM)	relative viability ([4]; first compound 0.3162 µM)
NCI-H1792	0.685	0.62	0.627	0.618	0.653	–	0.644	0.589	0.707	0.741	0.697	0.705	0.666	0.943	0.968	0.927	0.813
HCC-827	0.458	0.531	0.487	–	0.186	0.238	0.297	–	1.04	1.01	0.916	1.03	0.992	1.02	1.12	1.03	1.11
LU99A	0.393	0.427	0.392	0.366	0.318	0.356	0.307	0.278	0.565	0.503	0.49	0.526	0.506	1.19	0.99	1.18	1.09
LC-2-ad	0.46	0.442	0.515	0.456	0.776	0.681	0.817	0.758	0.945	0.886	0.815	1.03	0.89	1.18	0.853	0.976	1.08
NCI-H322M	0.519	0.484	0.475	–	0.613	0.419	0.571	–	0.807	0.909	0.829	0.913	0.841	1.17	1.15	1.22	1.06
HOP-62	0.454	0.399	0.425	0.466	0.503	0.62	0.515	0.667	0.851	0.985	1.03	1.06	0.941	0.948	–	0.591	1.05
NCI-H1993	0.701	0.621	0.583	0.567	0.768	0.715	0.656	0.455	0.682	0.629	0.688	0.737	0.709	1.16	1.05	1.14	0.79
NCI-H1734	0.384	0.319	0.336	0.366	0.6	0.487	0.505	0.478	0.707	0.664	0.653	0.855	0.737	0.932	1.01	0.843	1
NCI-H1666	0.691	0.596	0.66	0.681	0.904	0.841	0.835	0.705	0.932	0.969	1.04	1.08	1.02	0.856	0.828	0.744	0.803
NCI-H460	0.141	0.138	0.162	0.135	0.513	0.739	0.517	0.64	0.571	0.54	0.41	0.709	0.265	1.06	1.04	0.975	1.36
LCLC-97TM1	0.271	0.257	0.172	0.225	0.268	0.311	0.197	0.25	0.257	0.287	0.326	0.287	0.308	0.742	0.734	0.517	0.764
LOU-NH91	0.557	0.543	0.527	0.541	0.784	0.719	0.702	0.738	0.784	0.755	0.635	0.641	0.694	0.479	0.496	0.522	0.473
NCI-H838	0.245	0.212	0.188	0.207	1	0.973	0.872	0.906	1.02	0.991	0.968	1.22	0.846	0.712	0.61	0.683	0.786
NCI-H1437	0.311	0.28	0.335	0.289	1.22	1.16	1.11	0.96	0.999	1.07	0.944	1.18	0.949	0.503	0.344	0.425	0.434
NCI-H2087	0.209	0.233	0.276	0.228	1.28	1.47	1.12	1.32	0.86	1.11	0.942	1.02	1.17	0.759	0.639	0.664	0.893
